The values below come from a melting point compilation (Tetko et al.; mined from patent text by program, amines drawn as free bases though some values may be those of a salt).

The molecule `O=C(O)Cc1cccc(OCc2ccc3ccccc3n2)c1` displayed a melting point of 128 to 130 °C.
With `O=C1N(N2CCOCC2)c2ccccc2C1(Cc1ccccc1)c1ccccc1` (stereo not drawn) the figure was 159 to 161 °C; with `CCCCN(C1CS(=O)(=O)c2ccccc21)S(C)(=O)=O` (stereo not drawn), 171 to 173 °C; with `N#Cc1[nH]c(-c2ccc(Cl)cc2)c(S(=O)(=O)C(F)(F)F)c1Br`, 170 to 185 °C.
With `CC(=O)N1CCN(CCOc2cc(OC(C)C)c3c(Nc4c(Cl)cnc5c4OCO5)ncnc3c2)CC1` the figure was 208 to 210 °C; with `CC(C)(Cc1ccccc1)C(NC(=O)c1cccc(Cl)c1)Nc1c(Nc2cccnc2)c(=O)c1=O` (single isomer, unassigned; (-)), 178 to 179 °C; with `COc1ccccc1N1CCN(CCCOc2ccc(-c3cn4ccccc4n3)cc2)CC1`, 149 to 150 °C.
`CCCO[C@H]1CC[C@H](c2cnc(-c3ccc(C#N)cc3)nc2)CC1` gave a melting point of 114 °C.
Molecule `N#Cc1ncn2c1[C@@H]1CCN1C(=O)c1c-2cccc1C(F)(F)F` had a melting point of 115 to 119 °C.
With `Cc1cc(F)ccc1-c1cc(-c2ccccc2)nc(C(C)C)c1C=O`, the melting point lay within 110 to 112 °C.
`CCOC(=O)Nc1ccc(C)c(Cl)c1`: the melting point lay within 51 to 52 °C.
In the case of `N#Cc1cc(C(=O)NNC(=O)c2occ(-c3ccc(Cl)cc3)c2-c2ccc(Cl)cc2)ccc1O` it was 190 to 191 °C.
With `Cc1c(-c2ccccc2)sc2nc(N)[nH]c(=O)c12` the figure was 356 to 358 °C; with `Cc1cccc(C=NN2CCN(C(c3ccccc3)c3ccccc3)CC2)n1`, 130 to 132 °C; with `Cn1cncc1C(O)(c1ccc(Cl)nc1)c1ccc2noc(-c3cccc(Cl)c3)c2c1` (stereo not drawn), 230 °C.
In the case of `CC(C)(C)OC(=O)N1CCN(c2ccc(C(=O)CSc3ccnc4ccccc34)cc2)CC1` it was 153 to 154 °C; in that of `CCC(C(=O)c1ccc(Cl)cc1)n1ncn(-c2cnc(N3CCN(c4ccc(OC)cc4)CC3)nc2)c1=O` (stereo not drawn), 185 °C.
Molecule `N#Cc1cnc2ccc(/C=C/CCN3CCOCC3)cc2c1Nc1ccc(Cl)cc1Cl` registered a melting point of 115 to 116 °C.
In the case of `Cc1ccc(C(=O)Nc2cn(C3CCCCO3)nc2C(=O)NCCC(F)(F)F)cn1` (stereo not drawn) it was 147 to 148 °C; in that of `COc1c(Cl)ccc(-c2nc(C(=O)OC(C)C)cc(N)c2F)c1F`, 177 to 179 °C.
Regarding `CCCCc1nn(-c2cc(NC(=O)CC)ccc2Cl)c(=O)n1Cc1ccc(-c2ccccc2S(N)(=O)=O)cc1F`, the melting point is 135 to 137 °C.
In the case of `CC(O)(c1ccccc1)c1cncs1` (stereo not drawn) it was 86 to 87 °C.
In the case of `CCOC(=O)C(=CNc1ccccc1[N+](=O)[O-])C(=O)OCC` it was 104 to 105 °C; in that of `COc1ccc(S(=O)(=O)N(Cc2ccccc2)C2(C(=O)NO)CCN(Cc3ccccc3)CC2)cc1`, 136 to 142 °C.
Take `COC(=O)N1CCN2c3ccc(N4CC(CNC(C)=O)OC4=O)cc3OCC2C1` (stereo not drawn): the melting point is 185 to 190 °C.
With `CN1Cc2ccccc2C(=O)c2cc(CC(=O)O)cc(Br)c21` the figure was 164 to 167 °C.
In the case of `COc1ccc2c(c1)CCC(C(=O)Cl)C2` (stereo not drawn) it was 162 to 164 °C; in that of `N#Cc1[nH]c2ccc(Cl)cc2c1-c1ccccc1F`, 185 to 186 °C; in that of `CN1CCN(c2cc(Cl)cc3c2c(=O)n(Cc2ccc(N)cc2)c(=O)n3Cc2ccccc2)CC1`, 93 to 96 °C.
Turning to `COC(=O)OC[C@@H]1CC(c2ccc(-c3ccc(N4C[C@H](Cn5ccnn5)OC4=O)cc3F)cn2)=NO1`, the melting point is 205 °C.
With `CCOc1ccc(C(=O)N2c3ccccc3C(N3CCCc4ccccc43)CC2C)cc1OCC` (stereo not drawn) the figure was 157 to 158 °C; with `O=[N+]([O-])c1sc(I)nc1I`, 135 °C; with `O=C(C=Cc1ccc(F)cc1)c1ccc(C(F)(F)F)cc1`, 89 to 92 °C.

A word on the melting point: it is the temperature of the solid-liquid transition.
